# “Also recorded” adds a separate entry of the source.
# Key:
# P. aeruginosa (PA01) = assay: Static biofilm assay (CLSM); type: cell-based, Pseudomonas aeruginosa; conditions: 20 μM
# Method: (§1) For static biofilm assay, overnight cultures of P. aeruginosa (PA01), Salmonella and Staphylococcus aureus strains were diluted 1:10 in fresh LB medium containing a final concentration of synthesized molecule (203) of 20 or 50 μM, or DMSO (up to 1%) as control. Biofilms were grown under non-shaking conditions at 37° C. in 96-well plate (Thermo Scientific, Rochester, N.Y., USA). […] The stained cells were washed twice with PBS. Biofilm images were taken by CLSM (Plan-Apochromat 20×/0.8 M27, Zeiss LSM880, Germany).
# (§2) P. aeruginosa PA01, Salmonella and Staphylococcus aureus strains were incubated for 24 hr at 37° C. The bacterial suspension was diluted 1:10 with fresh LB and incubated for 3 h with the kefir biomass crude extract molecules or with DMSO as a control (refreshment sample). In all cultures, DMSO concentration was up to 1% (v/v). 200 μl of the broth medium mix with yogurt extract or with DMSO as control were placed in each well of a 96-well plate (Thermo Scientific, Rochester, N.Y., USA). 2 μl refreshment samples were added to each suitable well. The plate incubated for 24 hr at 37° C. After the incubation the samples washed three times with PBS. For visualizing of viable cells, the bacteria were stained green and dead cells stained red using the BacLight® Dead/Live Kit (Invitrogen, Eugene, Oreg., USA). The stained cells were washed twice with PBS. […]
# Staphylococcus aureus = assay: Static biofilm assay (CLSM); type: cell-based; conditions: 50 μM
# Method: as §1, §2
# amyloid beta (αβ1-42) [1] = biological target: T1, amyloid beta (αβ1-42) (Homo sapiens, UniProt P05067); assay: Thioflavin T (ThT) assay; type: biochemical; conditions: 30 μM amyloid beta, 12 hours of incubation
# T1 construct: samples containing 30 μM amyloid beta [4(1-42)] in the absence or presence of tryptophol acetate
# T1 sequence (P05067 672-713 limits assumed): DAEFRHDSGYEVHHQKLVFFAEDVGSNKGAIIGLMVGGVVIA
# Method: ThT fluorescence measurements were taken at 37° C. using 96-well black plate on a Biotek Synergy H1 plate reader. Measurements were made on a samples containing 30 μM amyloid beta [4(1-42)] in the absence or presence of tryptophol acetate in different concentrations. A 120-μL aliquot of the aggregation reaction was mixed with 10 μM ThT in phosphate buffer (pH 7.4). The fluorescence intensity was measured every 30 min for 24 hr at λ excitation (λex)=440 and λ emission (λem)=485 nm.
# Salmonella = assay: Static biofilm assay (CLSM); type: cell-based, Salmonella enteritidis; conditions: 50 μM
# Method: as §1, §2
# amyloid beta (αβ1-42) [2] = biological target: T1, amyloid beta (αβ1-42); assay: Surface plasmon resonance, anti-amyloid oligomer antibody chip; type: binding; conditions: 30 μM αβ1-42, 6-200 μM
# Method: SPR sensor chip with Oligomer All antibody, an anti-amyloid oligomer conformation-specific antibody was tested with samples containing 30 μM 4(1-42) in the absence or presence of tryptophol acetate in different concentrations.
# [3] = tested on: Agrobacterium tumefaciens A136; assay: Quorum sensing bioluminescence reporter assay; type: cell-based; conditions: C8 (3-oxo-C8-HSL) autoinducer
# Method: Bioluminescence assay was performed with mutant bacteria lacking the nucleotide sequences encoding the relevant autoinducers (AI). Additionally, the bacteria were cloned with bioluminescence reporter plasmids in order to measure their luminescence intensity when quorum sensing gene expression occurs. Ninety-six (96) well microtiter plate assays were used to assess AI activation (agonist) or inhibition (antagonist) of the following bacteria: Agrobacterium tumefaciens, which responds to the C8 autoinducer, and both Vibrio cholerae and Vibrio harveyi, which respond to the (S)-4,5-dihydroxy-2,3-pentanedione (DPD) autoinducer to communicate.
# Agrobacterium tumefaciens A136 pCF218 pMV26 culture was grown in Luria-Bertani broth (LB; Miller's broth) supplemented with 25 μg/ml of kanamycin and 4.5 μg/ml of tetracycline at 28-30° C. for 24 h. […] The overnight cultures were diluted to an absorbance density (OD600) of 0.05 by fresh LB medium. […] Luminescence was measured every 20 min for 19 h with continuous shaking at 30° C., using a Microtiter Plate Reader (Varioskan Flash, Thermo). Average luminescence values divided by OD600 values were plotted against the added compound concentration.
# The effect of the Kefir biomass crude extract molecules on the following bacteria, A. tumefaciens A136, V. cholerae MM920 and V. harveyi MM30 were measured as described by Brenier et al. (2008). […]
compound,measurement,setting,value
CC(=O)OCCc1c[nH]c2ccccc12 [Tryptophol acetate],"Biofilm formation, P. aeruginosa",P. aeruginosa (PA01),did not seem to affect biofilm formation; also recorded: No influence
same,"Biofilm formation, Staphylococcus aureus",Staphylococcus aureus,significant influence on biofilm formation
same,Amyloid beta fibrillation (ThT),amyloid beta (αβ1-42) [1],effectively reduced amyloid beta fibrillation; also recorded: reduced αβ1-42 fibrillation
same,"Biofilm formation, Salmonella",Salmonella,significant influence on biofilm formation
same,Inhibition of amyloid beta (SPR),amyloid beta (αβ1-42) [2],dose dependent manner
same,Effect on QS in A. tumefaciens,[3],inhibits QS
